Data from US8227472B2, “Substituted pyrrolo-pyrazole derivatives as kinase inhibitors” (Nerviano Medical Sciences S.R.L., priority 2006, dated 2012).

Experiments:
[1] = system: A2780 human ovarian cancer cells; test: In vitro cell proliferation assay, A2780 (CellTiter-Glo); assay type: cell-based; conditions: 72 hours
Procedure: In Vitro Cell Proliferation Assay
A2780 human ovarian and MCF7 human breast cancer cells (1250 cells/well) were seeded in white 384 well-plates in complete medium (RPMI1640 or EMEM plus 10% Fetal bovine serum) and treated with compounds dissolved in 0.1% DMSO, 24 h after seeding. The cells were incubated at 37° C. and 5% CO2 and after 72 hours the plates were processed using CellTiter-Glo assay (Promega) following the manufacturer's instruction.
CellTiter-Glo is a homogenous method based on the quantification of the ATP present, an indicator of metabolitically active cells. ATP is quantified using a system based on luciferase and D-luciferin resulting into light generation. The luminescent signal is proportional to the number of cells present in culture.
Briefly 25 microL/well reagent solution are added to each wells and after 5 minutes shacking microplates are red by a luminometer. The luminescent signal is proportional to the number of cells present in culture.

PLK-1 = target: T1, PLK-1 (Homo sapiens, UniProt P53350); test: Biochemical assay for inhibitors of PLK-1 kinase activity (33P trans-phosphorylation, Dowex); conditions: PLK-1 3 nM, 40 microM ATP, 85 microM alpha-casein
T1 construct: His tag (N, cleaved yes); TEV cleavage site (N, cleaved yes); made in house; host or cells: High5 insect cells (baculovirus generated in Sf9)
T1 sequence (P53350 2-345): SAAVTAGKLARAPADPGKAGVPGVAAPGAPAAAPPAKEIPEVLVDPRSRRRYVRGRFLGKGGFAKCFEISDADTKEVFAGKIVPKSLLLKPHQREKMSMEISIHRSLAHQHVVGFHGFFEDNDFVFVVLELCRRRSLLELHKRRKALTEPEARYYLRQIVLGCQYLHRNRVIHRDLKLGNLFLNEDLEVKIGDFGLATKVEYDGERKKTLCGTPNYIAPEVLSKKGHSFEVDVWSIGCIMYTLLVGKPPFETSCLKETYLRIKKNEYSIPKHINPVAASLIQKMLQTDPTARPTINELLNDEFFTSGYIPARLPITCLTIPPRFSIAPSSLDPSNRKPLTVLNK
Description: Cloning, Expression and Purification of Recombinant PLK1 Kinase Domain.
PLK1 kinase domain (corresponding to residues 2-345 of the full length sequence, see Swiss-Prot accession number P53350) was PCR amplified from the full-length human PLK1 gene purchased from imaGenes as clone IRATp970A078D.
For cloning purposes, the oligonucleotides included attB sites in order to obtain an attB-flanked PCR product suitable for cloning using the Gateway® technology (Invitrogen). Furthermore, for purification purposes, forward primer included a TEV® cleavage site (Amersham Biosciences). The resulting PCR product was cloned in the pDONR221 plasmid and then transferred in the baculovirus expression vector pVL1393 (Invitrogen) Gateway®-modified. For expression and purification purposes, a His tag was added N-terminal to the PLK kinase domain. Cloning was performed according to the protocols described in the Gateway® manual.
Baculoviruses were generated by cotransfecting Sf9 insect cells with the expression vector and the viral DNA using the BaculoGold® transfection kit (Pharmingen). Viral supernatant was recovered after 5 days and subjected to 3 rounds of amplification to increase viral titer. Recombinant protein was produced by infecting High5 insect cells. After 48 hours of infection, cells were recovered, pelletted and freezed at −80° C. For purification of recombinant protein, pellet was thawed, resuspended in lysis buffer (PBS, NaCl 150 mM, CHAPS 0.1%, DTT 20 mM, glycerol 10%, protease inhibitors) and lysed by sonication. Lysate was cleared by centrifugation and loaded on a Nichel affinity column. After extensive wash, recombinant protein was cleaved and eluted by incubation with TEV® protease.
Biochemical Assay for Inhibitors of PLK-1 Kinase Activity
The inhibitory activity of putative kinase inhibitors and the potency of selected compounds were determined using a trans-phosphorylation assay.
Specific peptide or protein substrates are trans-phosphorylated by their specific serine-threonine or tyrosine kinase, in the presence of ATP traced with ^33P-γ-ATP, and in the presence of their own optimal buffer and cofactors.
At the end of the phosphorylation reaction, more than 98% cold ATP and radioactive ATP is captured by an excess of the ion exchange dowex resin; the resin then settles down to the bottom of the reaction plate by gravity.
Supernatant, containing the phosphorylated substrate, is subsequently withdrawn and transferred into a counting plate, then evaluated by β-counting.
Kinase buffer was composed of 50 mM HEPES pH 7.9 containing 10 mM MnCl2, 1 mM DTT, 3 microM NaVO3, and 0.2 mg/mL BSA, 10 mM β-glycerophosphate.
The kinase assay was run with a final enzyme concentration PLK-1 of 3 nM, in presence of 40 microM ATP, 3 nM ^33P-γ-ATP and 85 microM substrate alpha-casein, SIGMA, #C-3240.
1) 3× Enzyme mix (done in Kinase Buffer 3×), 5 microL/well
2) 3× substrate and ATP mix (done in ddH2O), together with ^33P-γ-ATP, 5 microL/well
3) 3× test compounds (diluted into ddH2O—3% DMSO)—5 microL/well
For % inhibition studies, individual dilution plates at 1 mM, 100 microM and 10 microM are prepared in 100% DMSO, then diluted at a 3× concentration (30, 3 and 0.3 microM) in ddH2O, 3% DMSO. A Multimek 96 (Beckman) is used for dilutions and compound pipetting into the test plates
For IC50 determination, compounds are received as 1 mM, 100% DMSO solutions, plated into the first column of a microtiter plate (A1 to G1), 100 microL.
A Biomek 2000 (Beckman) is used for serial 1:3 dilutions in water, 3% DMSO, from column A1 to A10 and for all the seven compounds in the plate. In a standard experiment, the highest concentration of all compounds is 30 microM, then diluted in the final test mixture down to 10 microM. […]

Row | SMILES | IC50 [1] [nM] | IC50 (PLK-1) [nM]
1 | Cc1ccc(C(=O)Nc2n[nH]c3c2CN(C(=O)Nc2c(Cl)cccc2Cl)C3(C)C)cc1 [Compound 64, N-(2,6-dichlorophenyl)-6,6-dimethyl-3-[(4-methylbenzoyl)amino]-4,6-dihydropyrrolo[3,4-c]pyrazole-5(1H)-carboxamide] | 209 | 230
2 | CN1CCN(c2ccc(C(=O)Nc3n[nH]c4c3CN(C(=O)Cc3cccs3)C4(C)C)cc2)CC1 [Compound 60, N-[6,6-dimethyl-5-(2-thienylacetyl)-1,4,5,6-tetrahydropyrrolo[3,4-c]pyrazol-3-yl]-4-(4-methylpiperazin-1-yl)benzamide] | 71 | 52
3 | CN1CCN(c2ccc(C(=O)Nc3n[nH]c4c3CN(C(=O)Cc3ccccc3C(F)(F)F)C4(C)C)cc2)CC1 [Compound 44, N-(6,6-dimethyl-5-{[2-(trifluoromethyl)phenyl]acetyl}-1,4,5,6-tetrahydropyrrolo[3,4-c]pyrazol-3-yl)-4-(4-methylpiperazin-1-yl)benzamide] | 380 | 75

More lines, now with the values ahead:

Row | IC50 [1] [nM] | IC50 (PLK-1) [nM] | SMILES
4 | 19 | 96 | CCc1ccccc1NC(=O)N1Cc2c(NC(=O)c3ccc(N4CCN(C)CC4)cc3)n[nH]c2C1(C)C [Compound 178, N-(2-ethylphenyl)-6,6-dimethyl-3-{[4-(4-methylpiperazin-1-yl)benzoyl]amino}-4,6-dihydropyrrolo[3,4-c]pyrazole-5(1H)-carboxamide]
5 | 119 | 30 | CC1(C)c2[nH]nc(NC(=O)c3cccc(N)c3)c2CN1C(=O)Nc1c(Cl)cccc1Cl [Compound 250, 3-[(3-aminobenzoyl)amino]-N-(2,6-dichlorophenyl)-6,6-dimethyl-4,6-dihydropyrrolo[3,4-c]pyrazole-5(1H)-carboxamide]
6 | 63 | 24 | CC1(C)c2[nH]nc(NC(=O)c3ccc(N)cc3)c2CN1C(=O)Nc1c(Cl)cccc1Cl [Compound 251, 3-[(4-aminobenzoyl)amino]-N-(2,6-dichlorophenyl)-6,6-dimethyl-4,6-dihydropyrrolo[3,4-c]pyrazole-5(1H)-carboxamide]
